{
  "source": "paper PMC11124136",
  "about": "“New Thiazolidine-4-One Derivatives as SARS-CoV-2 Main Protease Inhibitors” (Pharmaceuticals, 2024)",
  "key": {"in vitro": {"experiment": "in vitro", "format": "cell-based", "details": "African green monkey", "method": "(§1) Vero-E6 GFP cells were seeded at 10^4 cells/well in 96-well black plates (PerkinElmer). The following day, cells were incubated, with or without compounds, with 2 μM P-gp inhibitor CP-100356 [47]. The media was removed 24 h after treatment, and the total well GFP fluorescence was measured using Victor NIVO 5 with 485/535 nm excitation wavelength. The cytotoxic effect of compounds was calculated as a percentage of cell viability with respect to untreated control. Data were analyzed using Prism 9. Version 9.1.2."}, "SARS-CoV-2 Mpro": {"molecular_target": "SARS-CoV-2 Mpro (Severe acute respiratory syndrome coronavirus 2, UniProt P0DTD1)", "experiment": "biochemical", "format": "biochemical", "details": "for remaining activity at 30 µM: SARS-CoV-2 Mpro, at 30 μM (highest concentration tested), read-out: Percentage of control activity measured in the presence of the indicated drug concentration; for IC50: FRET assay, concentration reducing Mpro activity by 50%, mean ± SD of three independent experiments, highest concentration tested 30 μM"}, "[1]": {"test_system": "SARS-CoV-2 BetaCoV/Belgium/GHB-03021/2020 strain", "experiment": "microbe, parasite or virus in culture", "format": "cell-based", "details": "read-out: EC50 + CP_100356"}, "Vero-E6 GFP cells": {"test_system": "Vero-E6 GFP cells", "experiment": "in vitro", "format": "cell-based", "details": "concentration reducing Vero E6-GFP viability by 50%; 2 μM CP-100356, 24 h; read-out: CC50 +CP_100356", "method": "as §1"}, "[2]": {"details": "Severe acute respiratory syndrome coronavirus 2, Vero C1008, 72 h, concentration reducing viral replication by 50%, […]"}},
  "note": "Read-outs that look alike come from different tables or passages of the source.",
  "data": [
    {"smiles": "COc1ccccc1CCN1C(=O)CSC1c1ccc([N+](=O)[O-])cc1", "note": "(stereo not drawn) [Compound 4e]", "values": [
      {"measurement": "CC50 at 24 h", "setting": "in vitro", "value": "> 100", "unit": "µM"},
      {"measurement": "remaining activity at 30 µM", "setting": "SARS-CoV-2 Mpro", "value": 54, "unit": "%"},
      {"measurement": "EC50", "setting": "[1]; [2]", "value": "> 100", "unit": "µM"}
    ]},
    {"smiles": "O=C1CSC(c2ccc([N+](=O)[O-])cc2)N1CCc1ccccc1Cl", "note": "(stereo not drawn) [Compound 4e]", "values": [
      {"measurement": "melting point", "value": "123 to 124.5", "unit": "°C"}
    ]},
    {"smiles": "O=C1CSC(c2ccc([N+](=O)[O-])cc2)N1CCc1ccccc1", "note": "(stereo not drawn) [Compound 4a, 2-(4-nitrophenyl)-3-(phenylethyl)-1,3-thiazolidin-4-one]", "values": [
      {"measurement": "CC50 at 24 h", "setting": "in vitro", "value": "> 100", "unit": "µM"},
      {"measurement": "IC50", "setting": "SARS-CoV-2 Mpro", "value": "> 30", "unit": "µM"},
      {"measurement": "remaining activity at 30 µM", "setting": "SARS-CoV-2 Mpro", "value": 53, "unit": "%"},
      {"measurement": "EC50", "setting": "[1]; [2]", "value": "> 100", "unit": "µM"},
      {"measurement": "melting point", "value": 125, "unit": "°C"}
    ]},
    {"smiles": "O=C1CSC(c2ccc([N+](=O)[O-])cc2)N1CCc1ccc(F)cc1", "note": "(stereo not drawn) [Compound 4d, 2-(4-nitrophenyl)-3-(4-fluorophenylethyl)-1,3-thiazolidin-4-one]", "values": [
      {"measurement": "CC50 at 24 h", "setting": "in vitro", "value": "> 100", "unit": "µM"},
      {"measurement": "IC50", "setting": "SARS-CoV-2 Mpro", "value": "27.5 ± 5.5", "unit": "µM"},
      {"measurement": "EC50", "setting": "[1]; [2]", "value": "> 100", "unit": "µM"},
      {"measurement": "melting point", "value": "149 to 151", "unit": "°C"}
    ]},
    {"smiles": "O=C1CSC(c2ccc([N+](=O)[O-])cc2)N1CCc1ccccc1Cl", "note": "(stereo not drawn) [Compound 4g]", "values": [
      {"measurement": "CC50 at 24 h", "setting": "in vitro", "value": "> 100", "unit": "µM"},
      {"measurement": "EC50", "setting": "[1]; [2]", "value": "> 100", "unit": "µM"}
    ]},
    {"smiles": "CC(C)C[C@H](NC(=O)OCc1ccccc1)C(=O)N[C@@H](CC1CCNC1=O)C(O)S(=O)(=O)O", "note": "(stereo partly drawn) [GC376, reference compound]", "values": [
      {"measurement": "CC50", "setting": "Vero-E6 GFP cells", "value": "> 100", "unit": "µM"},
      {"measurement": "EC50", "setting": "[1]", "value": "0.626 ± 0.06", "unit": "µM"}
    ]},
    {"smiles": "COc1ccc(CCN2C(=O)CSC2c2ccc([N+](=O)[O-])cc2)cc1", "note": "(stereo not drawn) [Compound 4f]", "values": [
      {"measurement": "CC50 at 24 h", "setting": "in vitro", "value": "> 100", "unit": "µM"},
      {"measurement": "remaining activity at 30 µM", "setting": "SARS-CoV-2 Mpro", "value": 82, "unit": "%"},
      {"measurement": "EC50", "setting": "[1]; [2]", "value": "> 100", "unit": "µM"}
    ]},
    {"smiles": "O=C1CSC(c2ccc([N+](=O)[O-])cc2)N1CCc1ccccc1F", "note": "(stereo not drawn) [Compound 4b, 2-(4-nitrophenyl)-3-(2-fluorophenylethyl)-1,3-thiazolidin-4-one]", "values": [
      {"measurement": "CC50 at 24 h", "setting": "in vitro", "value": "> 100", "unit": "µM"},
      {"measurement": "IC50", "setting": "SARS-CoV-2 Mpro", "value": "> 30", "unit": "µM"},
      {"measurement": "remaining activity at 30 µM", "setting": "SARS-CoV-2 Mpro", "value": 70, "unit": "%"},
      {"measurement": "EC50", "setting": "[1]; [2]", "value": "> 100", "unit": "µM"},
      {"measurement": "melting point", "value": "150 to 151", "unit": "°C"}
    ]},
    {"smiles": "O=C1CSC(c2ccc([N+](=O)[O-])cc2)N1CCc1ccc(Cl)cc1", "note": "(stereo not drawn) [Compound 4i]", "values": [
      {"measurement": "CC50 at 24 h", "setting": "in vitro", "value": "> 100", "unit": "µM"},
      {"measurement": "remaining activity at 30 µM", "setting": "SARS-CoV-2 Mpro", "value": 54, "unit": "%"},
      {"measurement": "EC50", "setting": "[1]; [2]", "value": "> 100", "unit": "µM"}
    ]},
    {"smiles": "O=C1CSC(c2ccc([N+](=O)[O-])cc2)N1CCc1cccc(F)c1", "note": "(stereo not drawn) [Compound 4c, 2-(4-nitrophenyl)-3-(3-fluorophenylethyl)-1,3-thiazolidin-4-one]", "values": [
      {"measurement": "CC50 at 24 h", "setting": "in vitro", "value": "> 100", "unit": "µM"},
      {"measurement": "IC50", "setting": "SARS-CoV-2 Mpro", "value": "> 30", "unit": "µM"},
      {"measurement": "remaining activity at 30 µM", "setting": "SARS-CoV-2 Mpro", "value": 87, "unit": "%"},
      {"measurement": "EC50", "setting": "[1]; [2]", "value": "> 100", "unit": "µM"},
      {"measurement": "melting point", "value": "165 to 167", "unit": "°C"}
    ]}
  ]
}
